In patent US20250241890A1, “1,4-DIUREAS AND 1,4-DITHIOUREAS AND USES THEREOF” (Purdue Research Foundation, priority 2024, published 2025):

Target: T1, α-synuclein (α-syn) (Homo sapiens, UniProt P37840)
T1 construct: purchased rPeptide (Watkinsville, GA)
Test: PICUP assay of α-syn oligomer formation
Assay type: biochemical
Details: α-syn 60 μM, compound 50 μM (~molar ratio 1:1)
Description: Chemical and peptide source. Dimethylsulfoxide (DMSO) and thioflavin-T (ThT) were purchased from Alfa Aesar (Ward Hill, MA). Recombinant α-synuclein (α-syn) was procured from rPeptide (WatKinsville, GA). The recombinant p-tau isoform 1N4R was prepared as published previously (Fortin et al. 2021, Sui et al. 2015, Liu et al. 2020). Concerning the preparation of tau 0N4R, a bacterial expression plasmid consisting of the vector pET30a carrying a cDNA encoding the human Tau 0N4R isoform was a kind gift of Dr. Benjamin Wolozin (Boston University). E. coli stock (Rosetta BL21 E. coli (CamR) containing pET30a [0N4R tau wt] (KanR)) was grown in LB medium supplemented with kanamycin (50 μg/mL) and chloramphenicol (50 μg/mL). Protein over-expression was induced by the addition of 1 mM IPTG for ˜18 hours at 37° C., and cells were pelleted by centrifugation at 6,000 g for 15 minutes at 4° C. The cells were resuspended in lysis buffer (10 mM Hepes, pH 7.4, 50 mM NaCl, 1 mM MgCl2, 1 mM PMSF, 1× PIC, and 0.5 mM DTT) and lysed by sonication at 30 seconds “On” and 1 minute “Off” at ˜30-45% power for ˜3-5 minutes. Lysate was centrifuged at 10,000 rpm for 10 minutes at 4° C., and supernatant was transferred with 7.8 ml (total) of 3M NaCl. The lysate was incubated for 10 minutes in 80° C. water bath, then cooled for 10 minutes in an ice bath. The lysate was centrifuged at 10,000 rpm at 4° C. for 10 minutes, and the supernatant was transferred to a new tube. The supernatant was dialyzed overnight against cation exchange buffer (50 mM MES, […], 1 mM DTT, pH 6.0). The dialysate was loaded onto a HiPrep SP HP column, and proteins were eluted with a linear gradient ranging from 50 mM to 1 M NaCl. General Characterizations. ^1H and ^13C {1H} NMR spectra were recorded using a 500 MHz Bruker instrument working at a frequency of 500 MHz for ^1H and at 126 MHz for ^13C. Chemical shifts are reported in ppm using residual solvent resonances as internal reference (δ 2.50 and δ 39.51 for ^1H and ^13C in DMSO-d6, respectively). ^1H NMR data are reported as follows. b=broad, s=singlet, d=doublet, t=triplet, q=quartet, and m=multiplet. Coupling constants are given in hertz. The purity of all compounds and synthetic intermediates was judged to be 95% or better based on ^1H NMR. IR measurements were performed in a Nicolet FTIR as thin films in the Purdue Drug Discovery facility. High-resolution mass spectrometry analyses were conducted at the MSU Mass Spectrometry facility. Thioflavin fluorescence assays. Thioflavin fluorescence assays were used to monitor fibril formation of commercial recombinant α-syn at a final concentration of 2 μM and treated with control DMSO and different compounds. The recombinant α-syn obtained from rPeptide has been validated with proper quality control to confirm the monomeric state of the protein. Kinetics of fibril formation have been performed using ThT as published previously.^6, 12, 13, 24 The fluorescence emission experiments were performed with the excitation and emission wavelengths set at 440 and 485 nm, respectively, with a Synergy HT multi-mode microplate reader (BioTek, Winooski, VT). Samples were measured in three replicates. Experiments were repeated three times using different α-syn stock solutions. For each time point, arbitrary units of fluorescence were calculated from the mean values normalized against the maximum value. The percentage of fluorescence intensity at the plateau phase in Table 1 was expressed as mean #SEM. Concerning the dose response curve depicted in FIG. 2, the data were plotted using GraphPad Prism. Photo-induced Cross-linking of Unmodified Proteins (PICUP) Assay. […] Different compounds were added to the protein solution at a final concentration of 50 μM, resulting in a molar ratio of 1:1. PICUP assays were performed with the following controls: samples without light exposition, without Ru(bpy) or ammonium persulfate, and without compound (i.e., 0.125% DMSO). […]

SMILES | percentage of oligomer reduction (PICUP, relative pixel density) | effect on α-syn oligomer formation (high molecular weight bands) by PICUP
O=C(Nc1ccc(NC(=O)Nc2cccc3[nH]ccc23)cc1)Nc1cccc2[nH]ccc12 [Compound 1, 3-(1H-indol-4-yl)-1-(4-{[(1H-indol-4-yl)carbamoyl]amino}phenyl)urea] | 52.6% | 
S=C(Nc1ccc(NC(=S)Nc2cccc3[nH]ccc23)cc1)Nc1cccc2[nH]ccc12 [Compound 2, 3-(1H-indol-4-yl)-1-(4-{[(1H-indol-4-yl)carbamothioyl]amino}phenyl)thiourea] | 84.2% | reduced α-syn oligomer formation
S=C(Nc1ccc(NC(=S)Nc2cccc3cc[nH]c23)cc1)Nc1cccc2cc[nH]c12 [Compound 8, 3-(1H-indol-7-yl)-1-(4-{[(1H-indol-7-yl)carbamothioyl]amino}phenyl)thiourea] | 91.2% | reduced α-syn oligomer formation
